“And” between values parts separate entries of the source, which are not always exact repeats. Identical values can stand only once.
System: 186277-243-T-J2-PDC spheroids with HUVEC/MSC, viability
Assay: Anticancer human tumor 186277-243-T-J2-PDC patient-derived colon adenocarcinoma cell line growth inhibition [CLK]
Conditions: for viability, T/C: stronger effect = lower value; active = viability on the fitted dose curve at most 10% of control; inactive = the rest
How it was run: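 Multi-cell-type spheroids combined patient-derived tumor cells with HUVEC endothelial cells and human mesenchymal stem cells. Paired agents were dosed in half-log steps down from about clinical Cmax, or from 10 microM where Cmax was unknown.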
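Also: compound exposure lasted seven days before readout.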
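For viability, T/C in this document: 100% = DMSO vehicle control wells.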

CC1COCCN1c1cc(C2(S(C)(=N)=O)CC2)nc(-c2ccnc3[nH]ccc23)n1 (centres undefined) + CNC(=O)c1ccc(Nc2nc(OC3CCCC3)c3c(-c4ccc5nc(C)oc5c4)c[nH]c3n2)c(OC)c1
active: viability, T/C (second compound 1 µM, first compound 10 µM) 5.07% | viability, T/C (second compound 3.16 µM, first compound 10 µM) 5.1% | viability, T/C (second compound 10 µM, first compound 10 µM) 7.43%
2.51 µM: IC50 (curve of first compound, second compound 0.0316 µM)
inactive: viability, T/C (second compound 0.0316 µM, first compound 0.0316 µM) 109% | viability, T/C (second compound 0.0316 µM, first compound 0.1 µM) 109% | viability, T/C (second compound 0.0316 µM, first compound 0.316 µM) 105% | viability, T/C (second compound 0.0316 µM, first compound 1 µM) 114% | viability, T/C (second compound 0.0316 µM, first compound 3.16 µM) 35% | viability, T/C (second compound 0.0316 µM, first compound 10 µM) 13% | viability, T/C (second compound 0.1 µM, first compound 0.0316 µM) 80.7% | viability, T/C (second compound 0.1 µM, first compound 0.1 µM) 77.5% | viability, T/C (second compound 0.1 µM, first compound 0.316 µM) 78.7% | viability, T/C (second compound 0.1 µM, first compound 1 µM) 60% | viability, T/C (second compound 0.1 µM, first compound 3.16 µM) 26.6% | viability, T/C (second compound 0.1 µM, first compound 10 µM) 13.7% | viability, T/C (second compound 0.316 µM, first compound 0.0316 µM) 55.8% | viability, T/C (second compound 0.316 µM, first compound 0.1 µM) 57% | viability, T/C (second compound 0.316 µM, first compound 0.316 µM) 51.5% | viability, T/C (second compound 0.316 µM, first compound 1 µM) 39% | viability, T/C (second compound 0.316 µM, first compound 3.16 µM) 15.8% | viability, T/C (second compound 0.316 µM, first compound 10 µM) 10.5% | viability, T/C (second compound 1 µM, first compound 0.0316 µM) 35.6% | viability, T/C (second compound 1 µM, first compound 0.1 µM) 33.4% | viability, T/C (second compound 1 µM, first compound 0.316 µM) 31.2% | viability, T/C (second compound 1 µM, first compound 1 µM) 22.9% | viability, T/C (second compound 1 µM, first compound 3.16 µM) 10.2% | viability, T/C (second compound 3.16 µM, first compound 0.0316 µM) 33.9% | viability, T/C (second compound 3.16 µM, first compound 0.1 µM) 31.6% | viability, T/C (second compound 3.16 µM, first compound 0.316 µM) 28.9% | viability, T/C (second compound 3.16 µM, first compound 1 µM) 21.6% | viability, T/C (second compound 3.16 µM, first compound 3.16 µM) 12.2% | viability, T/C (second compound 10 µM, first compound 0.0316 µM) 34.5% | viability, T/C (second compound 10 µM, first compound 0.1 µM) 35.6% | viability, T/C (second compound 10 µM, first compound 0.316 µM) 33% | viability, T/C (second compound 10 µM, first compound 1 µM) 24.9% | viability, T/C (second compound 10 µM, first compound 3.16 µM) 13%
1.42 µM: IC50 (curve of first compound, second compound 0.1 µM)
0.4 µM: IC50 (curve of first compound, second compound 0.316 µM)
< 0.0316 µM: IC50 (curve of first compound, second compound 1 µM) | IC50 (curve of first compound, second compound 3.16 µM) | IC50 (curve of first compound, second compound 10 µM)

CCCS(=O)(=O)Nc1ccc(F)c(C(=O)c2c[nH]c3ncc(-c4ccc(Cl)cc4)cc23)c1F
inactive: viability, T/C (compound 0.0316 µM) 97.7% and 105% | viability, T/C (compound 0.1 µM) 87.2% and 89.4% | viability, T/C (compound 0.316 µM) 113% and 109% | viability, T/C (compound 1 µM) 104% and 88.5% | viability, T/C (compound 3.16 µM) 120% and 94% | viability, T/C (compound 10 µM) 82.3% and 88%
> 10 µM: IC50 (curve of compound)

Source: PubChem BioAssay AID2060625 (Molecular Pharmacology Branch, DTP, NCI, 2025)
